Values of other authors, collected in US20050136114A1, “Taste masked pharmaceutical compositions comprising bitter drug and pH sensitive polymer” (COUNCIL OF SCIENTIFIC AND INDUSTRIAL RESEARCH, priority 2003, published 2005).

Tests used:
[1] = oral, humans
[2] = in presence of Eudragit E

In the case of `CO/N=C(\C(=O)N[C@@H]1C(=O)N2C(C(=O)OC(C)OC(C)=O)=C(COC(N)=O)CS[C@H]12)c1ccco1` (some centres unmarked) [cefuroxime axetil], the bioavailability [1] is given as 32-50% and the degradation [2] is given as “significant degradation”.
